Source: PMC12957798, “Adaptation of plateau frog peptide: From antimicrobial to angiogenic and proliferative functions” (Journal of Advanced Research, 2025)

Test system: wound tissue
Assay: H&E staining of mouse wound sections
Format: in vivo
Method: Sodium pentobarbital (2 %) was utilised for the anaesthetisation of mice by intraperitoneal injection (0.1 mL/20 g of mouse body weight). Subsequent to the induction of anaesthesia, the dorsal hair was removed using depilatory creams and electric scissors. Thereafter, circular full skin wounds of the same diameter were marked and created on the back of each mouse using circular stamps and red stencils. Mouse wounds were then covered and infiltrated daily with 20 μL of different concentrations of SC17-2 or 20 ng/mL of VEGF, and an equal volume of saline was used in the control group. Mice were anaesthetised every two days using isoflurane nebulisation followed by anaesthesia (concentration 2 %), after which they were placed under an optical camera to photograph the effect of wound area. After 13 days of treatment, mice were anaesthetised using isoflurane nebulisation followed by injection of an overdose of sodium pentobarbital to euthanise the mice (200 mg/kg). The wounds and their surrounding tissues were then excised for histopathological evaluation (Masson and H&E staining) and analysed by Enface immunofluorescence staining.

[1] = increase in concentration of SC17-2

## SFMPLSIPIMCKMLSKC [SC17-2, peptide of the pleskein family from the skin transcriptome of the frog Nanorana parkeri, made by solid-phase synthesis]
Day 13, SC17-2 no less than 10 μg/mL
  inflammatory cell infiltration in wound tissue: significantly reduced the degree of inflammatory cell infiltration in the wound tissue
[1]
  epithelial tissue thickness: notable thickening of epithelial tissue
  granulation tissue formation: enhanced granulation tissue formation
